The values that follow come from patent publication US20220274965A1, “ANTIVIRAL AGENTS AND USES THEREOF” (GRIFFITH UNIVERSITY, priority 2019, published 2022).

Experiment [1] concerns hPIV-3 strain JS. Nature of the experiment: Haemagglutination inhibition (HI) assay with human red blood cells. As to conditions: hPIV3 JS. It is filed as biochemical.
Experiment [2] relates to hPIV-3 strain CI002 (clinical isolate). Kind of experiment: In situ ELISA virus growth inhibition in LLC-MK2 cells. It is filed as cell-based. As to conditions: Human respirovirus 3, LLC-MK2; hPIV3 CI002. For orientation: In an ELISA, binding on a coated surface is turned into a signal by an enzyme label.
The test system of experiment [3] is hPIV-3 strain C243. Nature of the experiment: Haemagglutination inhibition (HI) assay with human red blood cells. As to conditions: hPIV3 C243. It is filed as biochemical.
The test system of experiment [4] is hPIV-3 strain CI002 (clinical isolate). Described as above. It is filed as biochemical. As to conditions: hPIV3 CI002.
The test system of experiment [5] is hPIV-1 strain C35. The experiment is described as above. It counts as biochemical. As to conditions: hPIV1 C35.
Experiment [6] concerns hPIV-3 strain C243. Kind of experiment: In situ ELISA virus growth inhibition in LLC-MK2 cells. It is filed as cell-based. As to conditions: Human respirovirus 3, LLC-MK2; hPIV3 C243; Table 2.
The test system of experiment [7] is hPIV-3 strain JS. Described as above. It counts as cell-based. As to conditions: Human respirovirus 3, LLC-MK2; hPIV3 JS.
In experiment [8] the test system is hPIV-1 strain C35. Nature of the experiment: In situ ELISA virus growth inhibition. It is filed as cell-based. The note with it: hPIV1 C35.

What is called IC50 is the concentration that inhibits the measured activity by half. Low readings indicate greater potency in that assay, high ones weaker potency in that assay.

Some results are limits rather than exact numbers.

Regarding `CC(=O)N[C@H]1[C@H]([C@H](O)[C@H](O)CO)OC(C(=O)O)=C[C@@H]1n1cc(-c2ccccc2NS(=O)(=O)c2ccc([N+](=O)[O-])cc2)nn1`, the IC50 in the experiment on hPIV-3 strain JS [1] is 4.48 µM; in experiment [2] it was 29.1 µM; in the experiment on hPIV-3 strain C243 [3], 2.56 µM; in experiment [4], 13.7 µM; in the experiment on hPIV-1 strain C35 [5], greater than 200 µM.

With `CC(=O)N[C@H]1[C@H]([C@H](O)[C@H](O)CO)OC(C(=O)O)=C[C@@H]1n1cc(-c2ccccc2NC(=O)CNS(=O)(=O)c2cccc([N+](=O)[O-])c2)nn1`, the concentration for half-maximal inhibition (IC50) was 15.4 µM in the experiment with hPIV-3 strain JS [1], 99.1 µM in experiment [2], 44.5 µM in experiment [4] and greater than 200 µM in the experiment on hPIV-1 strain C35 [5].

On to `CC(=O)N[C@H]1[C@H]([C@H](O)[C@H](O)CO)OC(C(=O)O)=C[C@@H]1n1cc(-c2ccccc2NC(=O)CNS(=O)(=O)c2ccc([N+](=O)[O-])cc2)nn1`, for which the IC50 with hPIV-3 strain C243 [6] is 63.9 µM; with hPIV-3 strain JS [7] it was 240 µM; in the experiment on hPIV-3 strain JS [1], 8 µM; in experiment [4] it was 23.9 µM; in the experiment on hPIV-1 strain C35 [8], greater than 200 µM; with hPIV-1 strain C35 [5] it was greater than 200 µM.

For the molecule `CC(=O)N[C@H]1[C@H]([C@H](O)[C@H](O)CO)OC(C(=O)O)=C[C@@H]1n1cc(-c2ccccc2NC(=O)CCNS(=O)(=O)c2ccc([N+](=O)[O-])cc2)nn1`, the IC50 is 38.5 µM in the experiment with hPIV-3 strain JS [1], 287 µM in experiment [2], greater than 200 µM in experiment [4] and greater than 200 µM in the experiment on hPIV-1 strain C35 [5].
